Measurements reported in ChEMBL document CHEMBL1153245, “A profile of the in vitro anti-tumor activity of imidazolium-based ionic liquids” (2010).

Experiments:
Format in all cases: functional
[1] = test system: HOP-92; experiment: Anticancer activity against human HOP92 cells after 48 hrs by sulforhodamine B assay
[2] = test system: NCI-H23; experiment: Anticancer activity against human NCI-H23 cells after 48 hrs by sulforhodamine B assay
[3] = test system: U-251; experiment: Anticancer activity against human U251 cells assessed cell growth at 10 uM after 48 hrs by sulforhodamine B assay relative to control
[4] = test system: 786-0; experiment: Anticancer activity against human 786-0 cells after 48 hrs by sulforhodamine B assay
[5] = test system: UACC-257; experiment: Anticancer activity against human UACC257 cells assessed cell growth at 10 uM after 48 hrs by sulforhodamine B assay relative to control
[6] = test system: U-251; experiment: Anticancer activity against human U251 cells after 48 hrs by sulforhodamine B assay
[7] = test system: KM12; experiment: Anticancer activity against human KM12 cells after 48 hrs by sulforhodamine B assay
[8] = test system: BT-549; experiment: Anticancer activity against human BT549 cells assessed cell growth at 10 uM after 48 hrs by sulforhodamine B assay relative to control
[9] = test system: DU-145; experiment: Anticancer activity against human DU145 cells after 48 hrs by sulforhodamine B assay
[10] = test system: CAKI-1; experiment: Anticancer activity against human Caki1 cells after 48 hrs by sulforhodamine B assay
[11] = test system: SN12C; experiment: Anticancer activity against human SN12C cells after 48 hrs by sulforhodamine B assay
[12] = test system: NCI-H460; experiment: Anticancer activity against human NCI-H460 cells after 48 hrs by sulforhodamine B assay
[13] = test system: OVCAR-3; experiment: Anticancer activity against human OVCAR-3 cells after 48 hrs by sulforhodamine B assay
[14] = test system: SF-295; experiment: Anticancer activity against human SF295 cells after 48 hrs by sulforhodamine B assay
[15] = test system: BT-549; experiment: Anticancer activity against human BT549 cells after 48 hrs by sulforhodamine B assay
[16] = test system: OVCAR-8; experiment: Anticancer activity against human OVCAR8 cells after 48 hrs by sulforhodamine B assay
[17] = test system: ACHN; experiment: Anticancer activity against human ACHN cells after 48 hrs by sulforhodamine B assay
[18] = test system: SNB-75; experiment: Anticancer activity against human SNB75 cells after 48 hrs by sulforhodamine B assay
[19] = test system: LOX IMVI; experiment: Anticancer activity against human LOXIMVI cells after 48 hrs by sulforhodamine B assay
[20] = test system: UACC-62; experiment: Anticancer activity against human UACC62 cells after 48 hrs by sulforhodamine B assay
[21] = test system: HL-60(TB); experiment: Anticancer activity against human HL-60(TB) cells after 48 hrs by sulforhodamine B assay
[22] = test system: SNB-19; experiment: Anticancer activity against human SNB19 cells assessed cell growth at 10 uM after 48 hrs by sulforhodamine B assay relative to control
[23] = test system: SK-MEL-2; experiment: Anticancer activity against human SK-MEL-2 cells assessed cell growth at 10 uM after 48 hrs by sulforhodamine B assay relative to control
[24] = test system: NCI/ADR-RES; experiment: Anticancer activity against human NCI/ADR-RES cells after 48 hrs by sulforhodamine B assay
[25] = test system: MDA-MB-468; experiment: Anticancer activity against human MDA-MB-468 cells assessed cell growth at 10 uM after 48 hrs by sulforhodamine B assay relative to control
[26] = test system: SK-MEL-28; experiment: Anticancer activity against human SK-MEL-28 cells assessed cell growth at 10 uM after 48 hrs by sulforhodamine B assay relative to control
[27] = test system: CCRF-CEM; experiment: Anticancer activity against human CCRF-CEM cells after 48 hrs by sulforhodamine B assay
[28] = test system: UO-31; experiment: Anticancer activity against human UO31 cells after 48 hrs by sulforhodamine B assay
[29] = test system: MCF7; experiment: Anticancer activity against human MCF7 cells after 48 hrs by sulforhodamine B assay
[30] = test system: EKVX; experiment: Anticancer activity against human EKVX cells after 48 hrs by sulforhodamine B assay
[31] = test system: MDA-MB-231; experiment: Anticancer activity against human MDA-MB-231 cells after 48 hrs by sulforhodamine B assay
[32] = test system: MCF7; experiment: Anticancer activity against human MCF7 cells assessed cell growth at 10 uM after 48 hrs by sulforhodamine B assay relative to control
[33] = test system: MDA-MB-435; experiment: Anticancer activity against human MDA-MB-435 cells assessed cell growth at 10 uM after 48 hrs by sulforhodamine B assay relative to control
[34] = test system: SK-MEL-5; experiment: Anticancer activity against human SK-MEL-5 cells assessed cell growth at 10 uM after 48 hrs by sulforhodamine B assay relative to control
[35] = test system: NCI-H322M; experiment: Anticancer activity against human NCI-H322M cells after 48 hrs by sulforhodamine B assay
[36] = test system: HT-29; experiment: Anticancer activity against human HT-29 cells after 48 hrs by sulforhodamine B assay
[37] = test system: SW-620; experiment: Anticancer activity against human SW620 cells after 48 hrs by sulforhodamine B assay
[38] = test system: HT-29; experiment: Anticancer activity against human HT-29 cells assessed cell growth at 10 uM after 48 hrs by sulforhodamine B assay relative to control
[39] = test system: NCI-H226; experiment: Anticancer activity against human NCI-H226 cells assessed cell growth at 10 uM after 48 hrs by sulforhodamine B assay relative to control
[40] = test system: HCT-15; experiment: Anticancer activity against human HCT15 cells assessed cell growth at 10 uM after 48 hrs by sulforhodamine B assay relative to control
[41] = test system: Malme-3M; experiment: Anticancer activity against human MALME-3M cells assessed cell growth at 10 uM after 48 hrs by sulforhodamine B assay relative to control
[42] = read-out: LC50 (the source's name)

In the case of CCCCCCCCCCCCCCCCCC[n+]1ccn(C)c1.F[P-](F)(F)(F)(F)F, the GI50 [1] is reported as 0.927 µM, the CC50 [1, 42] is reported as 6.68 µM and the GI50 [2] is reported as 0.424 µM. The CC50 [2, 42] was 7.98 µM, the Activity [3] was -22.42% and the GI50 [4] was 1.25 µM. It also gave an LC50 (50% lethal concentration) [4] of 8.58 µM, an Activity [5] of -62.12% and a GI50 [6] of 0.482 µM. The CC50 [6, 42] was 4.2 µM, the GI50 [7] was 0.471 µM and the CC50 [7, 42] was 4 µM. For the same compound, the Activity [8] was -23.5%, the GI50 [9] was 1.02 µM and the CC50 [9, 42] was 4.68 µM. For the same compound, the GI50 [10] was 0.791 µM, the LC50 [10] was 8.9 µM and the GI50 [11] was 1.2 µM. The LC50 [11] was 5.28 µM, the GI50 [12] was 0.636 µM and the LC50 [12] was 4.38 µM. For the same compound, the GI50 [13] was 0.453 µM, the LC50 (50% lethal concentration) [13] was 4.39 µM and the GI50 [14] was 0.503 µM. It also gave a CC50 [14, 42] of 6.02 µM, a GI50 [15] of 1.29 µM and a CC50 [15, 42] of 6.91 µM. The GI50 [16] was 1.3 µM, the LC50 [16] was 9.8 µM and the GI50 [17] was 0.934 µM. For the same compound, the LC50 [17] was 4.62 µM, the GI50 [18] was 0.991 µM and the CC50 [18, 42] was 6.5 µM. For the same compound, the GI50 [19] was 0.385 µM, the CC50 [19, 42] was 3.84 µM and the GI50 [20] was 1.18 µM. It also gave an LC50 [20] of 5.2 µM, a GI50 [21] of 0.185 µM and a CC50 [21, 42] of over 100 µM. The Activity [22] was -67.18%, the Activity [23] was -42.48% and the GI50 [24] was 1.45 µM. It also gave an Activity [25] of -23.16%, an Activity [26] of -57.59% and a GI50 [27] of 0.129 µM. For the same compound, the LC50 [27] was 0.98 µM, the GI50 [28] was 0.657 µM and the LC50 [28] was 5.35 µM. For the same compound, the GI50 [29] was 0.728 µM, the LC50 (50% cell kill) [29] was 4.5 µM and the GI50 [30] was 1.12 µM. For the same compound, the CC50 [30, 42] was 7.64 µM, the GI50 [31] was 1.03 µM and the CC50 [31, 42] was 5.11 µM. For the same compound, the Activity [32] was 1.35%, the Activity [33] was -71.22% and the Activity [34] was -85.04%. For the same compound, the GI50 [35] was 1.61 µM, the LC50 [35] was over 100 µM and the GI50 [36] was 0.408 µM. The CC50 [36, 42] was over 100 µM, the GI50 [37] was 0.519 µM and the LC50 [37] was 4.32 µM. The Activity [38] was -50.31%, the Activity [39] was -34.72% and the Activity [40] was 9.24%. For the same compound, the Activity [41] was -46.96%.
